This is an account of results in article PMC12145446, “Development of an AI model for DILI-level prediction using liver organoid brightfield images” (Communications Biology, 2025).

For data set [1] the following is noted: cited from earlier work; for Label section / Severity class: DILIrank; for Label section: FDA drug label section; for DILIrank: FDA DILIrank category based on clinical data.
For data set [2] the following is noted: peak serum concentration used as dosing reference; source not given; cited from earlier work.
Data set [3] deals with human liver organoids (HLOs). Description: Brightfield morphology of dosed human liver organoids. The data set is classed as cell-based. To be noted: 10*Cmax. The source says:
To explore the suitability of liver models with varying levels of complexity for DILI toxicity testing platforms, we established a single-type cell 3D model (HepG2 spheroid) and a multi-type cell 3D model (liver organoid). Specifically, HepG2 spheroids and HLOs were each exposed to 30 compounds with or without hepatotoxicity. The levels of ALB from the supernatant and cellular activity (ATP) from the spheres were further assessed at the end of Day 3 to validate the reliability of the system (Figs. 2b, d, f and 3b, d, f). […] The brightfield images across different time series and different z-axis orientations were collected daily to generate image data for morphological analysis (Supplementary Figs. 5 and 6).
(§1) The peak serum concentration (Cmax) can intuitively reflect the actual presence level of a drug in the body’s circulatory system. […] On this basis, we selected 10*Cmax as the reference concentration, taking into account the coefficient of variation in toxicology (individual variability: tenfold). […] Each drug was tested in triplicate. Plates were dosed with the drug for 72 h in each cycle (referred to as Day 0 through Day 3). […] At the end of day 3, the supernatant from each well was collected to determine ALB secretion, and the spheroids from each well were used for the cell viability assay.

For data set [4], the system named is human liver organoids (HLOs). The data set can be described thus: Cellular viability (ATP, CellTiter-Glo) in the DILI toxicity test on human liver organoids. Particulars: 10*Cmax; for ATP inhibition, significance vs 0*Cmax: liver organoids, Supplementary Fig. 2, peer review file. The data set is classed as cell-based. The procedure:
(§2) All experiments were performed using HLOs derived from a single donor tissue. For each assay, three technical replicates were analyzed, corresponding to three independently cultured wells seeded with organoids. For passage, the following embedding method was used: HLOs were enzymatically or mechanically fragmented (with pre-cold phosphate-buffered saline (PBS)) and reseeded in new Matrigel. Specifically, the pre-cold Matrigel/cell mixture is seeded in 24-well plates at 30 μL/well to enable the formation of dome-shaped structures. Incubation in the cell incubator (37 °C, 5% CO2) for 15 min is required for Matrigel polymerization. After solidification, 500 μL of specific medium is added and later renewed at specific intervals.
as §1
CellTiter-Glo (CTG, G9681, PROMEGA) reagent and culture medium were added to each well in a 1:1 ratio. The contents were mixed for 2 min to induce cell lysis. The plate was incubated at room temperature for 10 min to stabilize the luminescent signal. Recording of luminescence was carried out with BioTek Microplate Reader Synergy H1 (Vermont, USA).

For data set [5], the system named is human liver organoids (HLOs). The data set can be described thus: ALB secretion (Human Albumin ELISA) in the DILI toxicity test on human liver organoids. It is filed as cell-based. Particulars: 10*Cmax; for ALB inhibition, significance vs 0*Cmax: liver organoids, Supplementary Fig. 1. The procedure: as §2, §1
The culture supernatants were collected and stored at −80 °C until use. The supernatant was assayed with a Human Albumin ELISA Kit (PROTEINTECH, KE00076). Assays were performed according to the manufacturer’s instructions.

The structures appear in SMILES notation. Several values for one entry are separate records, joined by “and”; a condition that tells them apart may be missing. Identical values can stand only once. Entries after “also recorded” stand apart in the source; their conditions may differ.

For `C#Cc1cccc(Nc2ncnc3cc(OCCOC)c(OCCOC)cc23)c1` [Erlotinib], in data set [1], the Label section entry was “Warnings and precautions”; the Severity class is recorded as 8; the DILIrank result is reported as “vMost-DILI-Concern”. Moreover, the Cmax in data set [2] is 1200 ng/mL.
In the case of `CC(=O)O[C@H]1C(=O)[C@@]2(C)[C@H]([C@H](OC(=O)c3ccccc3)[C@]3(O)C[C@H](OC(=O)[C@H](O)[C@@H](NC(=O)c4ccccc4)c4ccccc4)C(C)=C1C3(C)C)[C@]1(OC(C)=O)CO[C@@H]1C[C@@H]2O` [Paclitaxel], in data set [1], the Label section entry is on record as “Adverse reactions”, the Severity class is given as 4 and the DILIrank result is “vLess-DILI-Concern”. The Cmax in data set [2] was 600 ng/mL.
Take `CN(Cc1cnc2nc(N)nc(N)c2n1)c1ccc(C(=O)N[C@@H](CCC(=O)O)C(=O)O)cc1` [Methotrexate]: in data set [1], the Label section result was “Box warning”, the Severity class is 3 and the DILIrank result is on record as “vMost-DILI-Concern”. Besides, the highest concentration (Cmax) in data set [2] is 351 ng/mL.
Take `CN(C)CCC(c1ccc(Cl)cc1)c1ccccn1` (stereo not shown) [Chlorpheniramine]: in data set [3] (Day 0 to Day 3), the “Brightfield morphology changes of HLOs” value was “still increased in diameter and developed into a typical translucent hollow sphere with clear boundaries”. In data set [3] (Day 0 to Day 3, listed as Chlorphenamine), the “Brightfield morphology changes of HLOs” value is on record as “still grew significantly”. In data set [1], the Label section result was “No match”, the Severity class is listed as 0 and the DILIrank result is recorded as “vNo-DILI-Concern”. The “DILI level label by DILIrank” value in data set [1] (label as worded in text and figure legends) was “No-DILI”. In addition, the ATP inhibition in data set [4] (human liver organoids, end of Day 3 (72 h), individual replicates n = 3, listed as Chlorphenamine) is 13% and 9% and -14%. The Cmax in data set [2] was 140 ng/mL. In data set [5] (human liver organoids, end of Day 3 (72 h), individual replicates n = 3, unit from Fig. S1 legend, listed as Chlorphenamine), the ALB inhibition was 1% and 9%.
In the case of `O=C1CC2(CCCC2)CC(=O)N1CCCCN1CCN(c2ncccn2)CC1` [Buspirone], in data set [1], the Label section entry is recorded as “Adverse reactions”, the Severity class is given as 3 and the DILIrank result is reported as “Ambiguous DILI-concern”. For the same compound, the Cmax in data set [2] was 1.92 ng/mL.
In the case of `CCc1nn(CCCN2CCN(c3cccc(Cl)c3)CC2)c(=O)n1CCOc1ccccc1` [Nefazodone], in data set [1], the Label section result is reported as “Box warning”, the Severity class is given as 8 and the DILIrank entry is “vMost-DILI-Concern”. Further, in data set [2], the highest concentration (Cmax) is 434.9 ng/mL.
Consider `COc1ccccc1Oc1c(NS(=O)(=O)c2ccc(C(C)(C)C)cc2)nc(-c2ncccn2)nc1OCCO` [Bosentan], for which, in data set [1], the Label section entry is “Box warning”, the Severity class was 7 and the DILIrank result is “vMost-DILI-Concern”. For the same compound, the Cmax in data set [2] was 2286 ng/mL.
In the case of `NNC(=O)c1ccncc1` [Isoniazid], in data set [1], the Label section entry was “Box warning”, the Severity class is listed as 8 and the DILIrank result is reported as “vMost-DILI-Concern”. In addition, in data set [4], the “ATP inhibition, significance vs 0*Cmax” value is “did not show a significant difference”. The Cmax in data set [2] was 10500 ng/mL. Also, the “ALB inhibition, significance vs 0*Cmax” value in data set [5] is listed as “did not show a significant difference”.
As to `O=C(O)Cc1ccccc1Nc1c(Cl)cccc1Cl` [Diclofenac], in data set [1], the Label section entry was “Warnings and precautions”; the Severity class was 8; the DILIrank entry was “vMost-DILI-Concern”.
Regarding `CCN(CC)CC(=O)Nc1c(C)cccc1C` [Lidocaine], in data set [1], the Label section result was “No match” and the Severity class was 0.
Turning to `CC[C@]1(O)C[C@@H]2CN(CCc3c([nH]c4ccccc34)[C@@](C(=O)OC)(c3cc4c(cc3OC)N(C)[C@H]3[C@@](O)(C(=O)OC)[C@H](OC(C)=O)[C@]5(CC)C=CCN6CC[C@]43[C@@H]65)C2)C1` [Vinblastine], the “ATP inhibition, significance vs 0*Cmax” value in data set [4] is given as “significant”. For the same compound, in data set [2], the Cmax is 28 ng/mL. The “ALB inhibition, significance vs 0*Cmax” value in data set [5] is on record as “significant”.
Take `CS(=O)(=O)Nc1ccc([N+](=O)[O-])cc1Oc1ccccc1` [Nimesulide]: in data set [1], the Label section result is recorded as “Withdrawn”, the Severity class is given as 8 and the DILIrank entry was “vMost-DILI-Concern”. Further, in data set [2], the Cmax was 6500 ng/mL.
For `C[C@H]1O[C@@H](O[C@H]2[C@@H](O)C[C@H](O[C@H]3[C@@H](O)C[C@H](O[C@H]4CC[C@@]5(C)[C@H](CC[C@@H]6[C@@H]5C[C@@H](O)[C@]5(C)[C@@H](C7=CC(=O)OC7)CC[C@]65O)C4)O[C@@H]3C)O[C@@H]2C)C[C@H](O)[C@@H]1O` [Digoxin], the “ATP inhibition, significance vs 0*Cmax” value in data set [4] is recorded as “significant”. For the same compound, the Cmax in data set [2] was 2.21 ng/mL. Besides, the “ALB inhibition, significance vs 0*Cmax” value in data set [5] is reported as “significant”.
Regarding `CN(C)CCOC(c1ccccc1)c1ccccc1` [Diphenhydramine], in data set [1], the Label section result was “No match” and the Severity class is reported as 0.
`CCN(CC)C(=O)/C(C#N)=C/c1cc(O)c(O)c([N+](=O)[O-])c1` [Entacapone]: in data set [1], the Label section entry was “No match”, the Severity class is reported as 0 and the DILIrank entry was “vLess-DILI-Concern”. In addition, in data set [2], the Cmax is 1000 ng/mL.
On to `CCc1oc2ccccc2c1C(=O)c1cc(Br)c(O)c(Br)c1` [Benzbromarone], for which, in data set [1], the Label section entry is reported as “Withdrawn”, the Severity class is given as 8 and the DILIrank result is reported as “vMost-DILI-Concern”. Further, the Cmax in data set [2] was 1840 ng/mL.
Turning to `C[C@H]1COc2c(N3CCN(C)CC3)c(F)cc3c(=O)c(C(=O)O)cn1c23` [Levofloxacin], the DILIrank result in data set [1] is listed as “vMost-DILI-Concern”. Also, the Cmax in data set [2] is 5700 ng/mL.
Regarding `COc1cc2ncnc(Nc3ccc(F)c(Cl)c3)c2cc1OCCCN1CCOCC1` [Gefitinib], the “Brightfield morphology changes of HLOs” value in data set [3] (Day 0 to Day 3) was “underwent cell death, failed to maintain their original spherical structure, and disintegrated by the end of Day 3; also recorded: started to undergo significant cell death and structural disintegration”. Moreover, the Cmax in data set [2] was 200 ng/mL.
As for `Cc1ccc(C(=O)c2cc(O)c(O)c([N+](=O)[O-])c2)cc1` [Tolcapone], in data set [1], the Label section entry is reported as “Box warning (withdrawn)”, the Severity class is listed as 8 and the DILIrank result was “vMost-DILI-Concern”. Also, the Cmax in data set [2] is 13000 ng/mL.
As to `CC(c1cc2ccccc2s1)N(O)C(N)=O` (stereo not shown) [Zileuton], in data set [1], the Label section entry is “Warnings and precautions”; the Severity class is 5; the DILIrank entry is given as “vMost-DILI-Concern”. Further, the Cmax in data set [2] was 3100 ng/mL.
With `CCc1ccc(CCOc2ccc(CC3SC(=O)NC3=O)cc2)nc1` (stereo not shown) [Pioglitazone], in data set [1], the Label section result is “Warnings and precautions”; the Severity class is listed as 3; the DILIrank entry is given as “vLess-DILI-Concern”. The Cmax in data set [2] is 1050 ng/mL.
In the case of `Cc1nc(Nc2ncc(C(=O)Nc3c(C)cccc3Cl)s2)cc(N2CCN(CCO)CC2)n1` [Dasatinib], in data set [1], the Label section result is recorded as “Adverse reactions”, the Severity class is reported as 4 and the DILIrank entry is reported as “vLess-DILI-Concern”. In addition, the Cmax in data set [2] is 129 ng/mL.
With `CC(=O)Nc1ccc(O)cc1` [Acetaminophen], the Label section result in data set [1] is “Warnings and precautions”.
In the case of `CC(C)C(=O)Nc1ccc([N+](=O)[O-])c(C(F)(F)F)c1` [Flutamine], in data set [1], the Label section result is recorded as “Box warning”, the Severity class is on record as 8 and the DILIrank result is “vMost-DILI-Concern”. Further, the Cmax in data set [2] is 100 ng/mL.
Regarding `Cc1cn([C@H]2C=C[C@@H](CO)O2)c(=O)[nH]c1=O` [Stavudine], in data set [1], the Label section entry is “Box warning”, the Severity class is 8 and the DILIrank result is “vMost-DILI-Concern”. For the same compound, the Cmax in data set [2] was 776.4 ng/mL.
Consider `Cc1c(C)c2c(c(C)c1O)CCC(C)(COc1ccc(CC3SC(=O)NC3=O)cc1)O2` (stereo not shown) [Troglitazone], for which, in data set [1], the Label section entry is on record as “Withdrawn”, the Severity class is 8 and the DILIrank result was “vMost-DILI-Concern”. Moreover, the Cmax in data set [2] was 2820 ng/mL.
